From US20220298141A1, “ENZYME INHIBITORS” (KALVISTA PHARMACEUTICALS LIMITED, priority 2019, published 2022)
pIC50: −log10 of the molar value.

How the values were obtained:
Human Factor XIIa = target: T1, Human Factor XIIa (Homo sapiens, UniProt P00748); test: Determination of Factor XIIa inhibitory activity in vitro (fluorogenic substrate H-DPro-Phe-Arg-AFC); assay type: biochemical; settings: Human Factor XIIa (Enzyme Research Laboratories), 25° C., read-out: Human FXIIa IC50
T1 construct: purchased Enzyme Research Laboratories
T1 sequence (P00748 373-615 limits assumed): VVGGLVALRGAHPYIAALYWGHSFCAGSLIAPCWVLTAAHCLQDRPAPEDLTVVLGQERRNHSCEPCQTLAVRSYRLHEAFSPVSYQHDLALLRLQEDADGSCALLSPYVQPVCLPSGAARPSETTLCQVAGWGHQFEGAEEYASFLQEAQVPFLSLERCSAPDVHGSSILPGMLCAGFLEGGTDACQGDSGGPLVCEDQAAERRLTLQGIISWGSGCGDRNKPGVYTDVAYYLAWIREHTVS
T1 sequence (P00748 20-372 partner limits assumed): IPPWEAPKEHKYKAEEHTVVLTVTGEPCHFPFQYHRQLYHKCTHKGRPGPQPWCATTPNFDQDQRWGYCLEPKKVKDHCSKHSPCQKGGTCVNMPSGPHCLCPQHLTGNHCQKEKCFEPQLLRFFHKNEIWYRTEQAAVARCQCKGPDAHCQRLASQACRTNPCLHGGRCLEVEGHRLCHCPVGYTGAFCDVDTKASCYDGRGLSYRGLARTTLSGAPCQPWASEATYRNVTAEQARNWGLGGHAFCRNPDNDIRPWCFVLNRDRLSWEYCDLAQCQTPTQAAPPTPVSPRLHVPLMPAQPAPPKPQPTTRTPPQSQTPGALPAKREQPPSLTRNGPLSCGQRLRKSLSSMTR
Outline: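 In vitro inhibition of human Factor XIIa (sourced from Enzyme Research Laboratories) was measured by incubating the enzyme at 25° C. with the fluorogenic substrate H-DPro-Phe-Arg-AFC across a range of test compound concentrations. The initial reaction rate, taken as residual enzyme activity, was followed by the […], and IC50 values were calculated.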

Human FXIa = target: T2, Human FXIa (Homo sapiens, UniProt P03951); test: Determination of FXIa inhibitory activity in vitro (fluorogenic substrate Z-Gly-Pro-Arg-AFC); assay type: biochemical; settings: Selectivity, Human FXIa (Enzyme Research Laboratories), 25° C.
T2 construct: purchased Enzyme Research Laboratories
T2 sequence (P03951 388-625 limits assumed): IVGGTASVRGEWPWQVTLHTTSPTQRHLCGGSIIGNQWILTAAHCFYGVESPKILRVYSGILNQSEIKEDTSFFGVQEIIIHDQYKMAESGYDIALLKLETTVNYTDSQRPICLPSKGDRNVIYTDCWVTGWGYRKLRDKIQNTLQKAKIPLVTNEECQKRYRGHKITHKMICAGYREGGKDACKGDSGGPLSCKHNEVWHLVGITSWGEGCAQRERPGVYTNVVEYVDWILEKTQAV
T2 sequence (P03951 19-387 partner limits assumed): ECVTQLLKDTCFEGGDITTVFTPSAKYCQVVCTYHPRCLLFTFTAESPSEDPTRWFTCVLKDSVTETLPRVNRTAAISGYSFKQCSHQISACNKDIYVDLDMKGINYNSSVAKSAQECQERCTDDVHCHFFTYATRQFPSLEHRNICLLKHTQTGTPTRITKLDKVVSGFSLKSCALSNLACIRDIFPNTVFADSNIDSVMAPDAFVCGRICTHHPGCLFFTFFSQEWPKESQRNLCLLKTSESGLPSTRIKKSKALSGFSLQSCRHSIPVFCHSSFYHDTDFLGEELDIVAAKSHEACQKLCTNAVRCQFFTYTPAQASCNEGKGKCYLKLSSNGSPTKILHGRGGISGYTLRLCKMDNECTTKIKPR

Compound `CN1CCC(CNc2nccnc2C(=O)Nc2ccc3c(N)nccc3c2)CC1` [Example 33.07] has a pIC50 (Human Factor XIIa) of 4.40 to 5.00 and a pIC50 (Human FXIa) of under 4.40.

For `CN1CCC(CNc2nccnc2C(=O)Nc2ccc3nccnc3c2)CC1` [Example 33.08], the pIC50 (Human Factor XIIa) was 4.40 to 5.00 and the pIC50 (Human FXIa) was under 4.40.

Compound `COc1ccc(-n2cc(C(=O)O)nn2)c(CNC(=O)c2nccnc2NCC2CCN(C)CC2)c1F` [Example 33.09, 1-(3-Fluoro-4-methoxy-2-{[(3-{[(1-methylpiperidin-4-yl)methyl]amino}pyrazin-2-yl)formamido]methyl}phenyl)-1,2,3-triazole-4-carboxylic acid] has a pIC50 (Human Factor XIIa) of 4.40 to 5.00 and a pIC50 (Human FXIa) of 4.47.

With `Cc1nc2ccc(NC(=O)c3nccnc3NCC3CCN(C)CC3)cc2o1` [Example 33.10] the pIC50 (Human Factor XIIa) was 4.40 to 5.00 and the pIC50 (Human FXIa) was 4.70.

`CN1CCC(CNc2nccnc2C(=O)Nc2ccc(-c3n[nH]c(=O)[nH]3)cc2)CC1` [Example 33.11] was tested, and the pIC50 (Human Factor XIIa) was 4.40 to 5.00 and the pIC50 (Human FXIa) was under 4.40.

In the case of `CN1CCC(CNc2nccnc2C(=O)Nc2cccc3c(N)nccc23)CC1` [Example 33.12, N-(1-aminoisoquinolin-5-yl)-3-(((1-methylpiperidin-4-yl)methyl)amino)pyrazine-2-carboxamide], the pIC50 (Human Factor XIIa) was 5.52 to 6.00 and the pIC50 (Human FXIa) was under 4.40.

Compound `CN1CCC(CNc2nccnc2C(=O)N[C@@H]2CCc3c2ccnc3N)CC1` [Example 33.13] has a pIC50 (Human Factor XIIa) of 5.00 to 5.52 and a pIC50 (Human FXIa) of 4.40.

`CN1CCC(CNc2nccnc2C(=O)Nc2cnc3[nH]cc(Cl)c3c2)CC1` [Example 33.14] was tested, and the pIC50 (Human Factor XIIa) was 4.40 to 5.00 and the pIC50 (Human FXIa) was under 4.40.

`CN1CCC(CNc2nccnc2C(=O)Nc2cccc3[nH]cc(Cl)c23)CC1` [Example 33.15] showed a pIC50 (Human Factor XIIa) of 4.40 to 5.00 and a pIC50 (Human FXIa) of under 4.40.

Work on `CN1CCC(CNc2nccnc2C(=O)NCc2ccc3ccnc(N)c3c2)CC1` [Example 33.16] yielded a pIC50 (Human Factor XIIa) of 5.00 to 5.52 and a pIC50 (Human FXIa) of under 4.40.

`COc1ccc(-n2cncn2)c(CNC(=O)c2nccnc2NCC2CCN(C)CC2)c1F` [Example 33.17] was tested, and the pIC50 (Human Factor XIIa) was 4.40 to 5.00 and the pIC50 (Human FXIa) was under 4.40.

With `Cc1c(CNC(=O)c2nccnc2NCC2CCN(C)CC2)ccc2c(N)nccc12` [Example 33.18, N-((1-amino-5-methylisoquinolin-6-yl)methyl)-3-(((1-methylpiperidin-4-yl)methyl)amino)pyrazine-2-carboxamide] the pIC50 (Human Factor XIIa) was 6.00 to 6.52 and the pIC50 (Human FXIa) was under 4.40.

For `CN1CCC(CNc2nccnc2C(=O)NCc2cc(F)c3c(N)nccc3c2)CC1` [Example 33.19], the pIC50 (Human Factor XIIa) was 4.40 to 5.00 and the pIC50 (Human FXIa) was under 4.40.

`COc1cc2c(N)nccc2cc1CNC(=O)c1nccnc1NCC1CCN(C)CC1` [Example 33.20] showed a pIC50 (Human Factor XIIa) of 5.52 to 6.00 and a pIC50 (Human FXIa) of 4.87.

`CN1CCC(CNc2nccnc2C(=O)NCc2cc3c(N)nccc3s2)CC1` [Example 33.21] gave a pIC50 (Human Factor XIIa) of 5.00 to 5.52 and a pIC50 (Human FXIa) of under 4.40.
